Legend:
DPB1*02:01 = test: Peptide binding to HLA-DP allele, competition assay; design: species or system human
From the text: (§1) Peptide binding to MHC-II requires anchor residues in certain positions and thus can be predicted using computer algorithms. Affinity can be measured experimentally using a competition assay (1). Both are excellent screening tools. However, affinity must be measured separately for each MHC-II allele. Humans express molecules encoded in four different MHC-II loci, denominated HLA-DRB1, DRB3/4/5, DP and DQ. Allelic variation is large, and most people are heterozygous at each locus, thus expressing up to 8 relevant MHC-II alleles. CD4 T cell responses strictly require that the antigenic peptide binds to the relevant MHC-II.
(§2) To identify peptides that could potentially be used in human patients, 30 peptides were screened for binding to 26 HLA alleles by competition assay.

DPB1*03:01 = test: as above; design: species or system human
From the text: as §1, §2

DPB1*04:02 = test: as above; design: species or system human
From the text: as §1, §2

DPB1*05:01 = test: as above; design: species or system human
From the text: as §1, §2

DPB1*14:01 = test: as above; design: species or system human
From the text: as §1, §2

DPB1*04:01 = target: T1, DPB1*04:01 (Homo sapiens, UniProt P04440); test: as above
T1 sequence (P04440 30-258): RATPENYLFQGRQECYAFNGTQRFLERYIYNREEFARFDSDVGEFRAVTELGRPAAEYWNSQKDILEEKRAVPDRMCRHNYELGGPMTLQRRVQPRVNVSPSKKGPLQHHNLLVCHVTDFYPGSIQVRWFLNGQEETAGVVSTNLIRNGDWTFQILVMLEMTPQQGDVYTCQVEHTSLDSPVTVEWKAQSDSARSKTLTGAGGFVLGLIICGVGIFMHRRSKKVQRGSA
T1 sequence (P20036 29-260 partner): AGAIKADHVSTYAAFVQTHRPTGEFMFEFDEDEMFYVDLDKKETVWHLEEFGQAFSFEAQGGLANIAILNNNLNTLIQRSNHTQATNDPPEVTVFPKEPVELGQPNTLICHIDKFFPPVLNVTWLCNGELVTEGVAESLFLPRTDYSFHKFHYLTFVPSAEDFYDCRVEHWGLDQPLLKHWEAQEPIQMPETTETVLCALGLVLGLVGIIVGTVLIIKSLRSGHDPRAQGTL
From the text: as §1, §2

DQB1*05:01 = test: Peptide binding to HLA-DQ allele, competition assay; design: species or system human
From the text: as §1, §2

DQB1*06:02 = test: as above; design: species or system human
From the text: as §1, §2

DRB1*04:01 = DRB1*04:01 (Homo sapiens, UniProt P01903+P01911, A100K/A169T/F76Y/I96L/K127E/L162R/M171V/N62H/P40V/Q125Y/R42H/S133A/S149N/S66Y/V115G/V209L/W38E); test: Peptide binding to HLA-DR allele, competition assay
From the text: as §1, §2

DRB1*09:01 = DRB1*09:01 (Homo sapiens, UniProt P01903+P01911, A100R/A103E/D57H/D86V/F55Y/F60I/F76Y/I96F/K127E/L162R/M171V/P40D/Q125H/Q99R/R33Q/R42F/S133A/S66N/T210M/V115G/W38K/Y107V/Y59G/Y89S); test: as above
From the text: as §1, §2

DRB4*01:01 = DRB4*01:01 (Homo sapiens, UniProt P01903+P13762, G164S); test: as above
From the text: as §1, §2

DRB3*02:02 = DRB3*02:02 (Homo sapiens, UniProt P01903+P79483, A212P/D57E/F66Y/L67A/R103Q/R218S/R40L/S89Y/T80R/V86D/Y55F/Y59H); test: as above
From the text: as §1, §2

HLA-DRB1*01:01 = HLA-DRB1*01:01 (Homo sapiens, UniProt P01903+P01911, A100R/D57E/F55L/F60I/F76Y/I96L/L162R/M171V/P40L/Q125E/R42F/V115G/Y59C); test: as above
From the text: as §1, §2

DRB5*01:01 = DRB5*01:01 (Homo sapiens, UniProt P01903+Q30154); test: as above
From the text: as §1, §2

atherosclerotic plaque = test: Peptide immunization in atherosclerosis model (ApoE−/− mice on western diet); type: in vivo, mouse; conditions: immunization in CFA and 4×IFA

Row | Molecule | IC50 (DPB1*02:01) [nM] | IC50 (DPB1*03:01) [nM] | IC50 (DPB1*04:02) [nM] | IC50 (DPB1*05:01) [nM] | IC50 (DPB1*14:01) [nM] | IC50 (DPB1*04:01) [nM] | IC50 (DQB1*05:01) [nM] | IC50 (DQB1*06:02) [nM] | IC50 (DRB1*04:01) [nM] | IC50 (DRB1*09:01) [nM] | IC50 (DRB4*01:01) [nM] | IC50 (DRB3*02:02) [nM] | IC50 (HLA-DRB1*01:01) [nM] | IC50 (DRB5*01:01) [nM] | atherosclerotic plaque in the aortic root by serial sections (atherosclerotic plaque) | atherosclerotic plaque in the whole aorta by en face staining (atherosclerotic plaque)
1 | CSCC[C@H](NC(=O)[C@H](CC(C)C)NC(=O)[C@H](Cc1ccc(O)cc1)NC(=O)[C@H](C)NC(=O)[C@H](C)NC(=O)[C@H](CC(C)C)NC(=O)[C@H](CCCNC(=N)N)NC(=O)[C@H](CCCCN)NC(=O)[C@@H](N)CC(=O)O)C(=O)N[C@@H](CC(C)C)C(=O)N[C@@H](CCSC)C(=O)N[C@@H](CCCNC(=N)N)C(=O)N[C@@H](CO)C(=O)N1CCC[C@H]1C(=O)N[C@@H](CO)C(=O)O [Peptide 3563.0004] | 1680 | 26 | 23 | 4.1 | 102 | 372 | 53 | 13 | 7.1 | 74 | 12 | – | – | – | – | –
2 | CC[C@H](C)[C@H](NC(=O)[C@@H](NC(=O)[C@@H](N)CC(C)C)[C@@H](C)CC)C(=O)N[C@@H](CC(N)=O)C(=O)N[C@@H](Cc1c[nH]c2ccccc12)C(=O)N[C@@H](CC(C)C)C(=O)N[C@@H](CCC(N)=O)C(=O)N[C@@H](CCC(=O)O)C(=O)N[C@@H](C)C(=O)N[C@@H](CC(C)C)C(=O)N[C@@H](CO)C(=O)N[C@@H](CO)C(=O)N[C@@H](C)C(=O)N[C@@H](CO)C(=O)N[C@@H](CC(C)C)C(=O)O [Peptide 3563.0015] | 16300 | – | 2050 | – | 9550 | 6190 | – | 1950 | – | – | 12 | – | – | – | – | –
3 | CC[C@H](C)[C@H](NC(=O)[C@H](CC(N)=O)NC(=O)[C@H](CCCCN)NC(=O)[C@H](CC(C)C)NC(=O)[C@H](Cc1ccccc1)NC(=O)[C@H](CCCNC(=N)N)NC(=O)[C@H](CC(C)C)NC(=O)[C@H](Cc1c[nH]cn1)NC(=O)CNC(=O)[C@@H](N)CCC(=O)O)C(=O)N[C@H](C(=O)N[C@@H](CC(C)C)C(=O)N1CCC[C@H]1C(=O)N[C@H](C(=O)N[C@@H](Cc1ccc(O)cc1)C(=O)O)C(C)C)[C@@H](C)CC [Peptide 3563.0021] | 61 | – | – | 4610 | 2070 | – | – | 6140 | – | – | 3.3 | 3.3 | – | – | – | –
4 | CC(C)C[C@H](NC(=O)[C@H](CCC(N)=O)NC(=O)[C@H](C)NC(=O)[C@H](CC(N)=O)NC(=O)[C@H](C)NC(=O)[C@H](CCC(N)=O)NC(=O)[C@H](Cc1ccccc1)NC(=O)[C@H](CC(=O)O)NC(=O)[C@H](Cc1ccccc1)NC(=O)[C@H](CC(N)=O)NC(=O)[C@H](CC(C)C)NC(=O)[C@@H](NC(=O)[C@H](CCC(=O)O)NC(=O)[C@@H](N)CC(C)C)C(C)C)C(=O)N[C@@H](CO)C(=O)O [Peptide 3563.0017] | 86 | – | 586 | 39400 | – | 191 | – | – | 55 | – | 94 | – | 46 | – | – | –
5 | CC[C@H](C)[C@H](NC(=O)[C@H](CC(C)C)NC(=O)[C@H](CO)NC(=O)[C@@H](NC(=O)[C@@H](NC(=O)[C@@H](N)CCCCN)[C@@H](C)CC)C(C)C)C(=O)N[C@@H](CCCCN)C(=O)N[C@@H](CC(N)=O)C(=O)N[C@@H](CC(C)C)C(=O)N[C@@H](CC(C)C)C(=O)N[C@H](C(=O)N[C@@H](C)C(=O)N[C@@H](CC(C)C)C(=O)N[C@@H](CCCCN)C(=O)N[C@@H](CC(=O)O)C(=O)O)C(C)C [Peptide 3563.0028] | 657 | – | 155 | – | 1800 | 78 | 124 | 1460 | – | – | – | – | – | 14 | – | –
6 | ovalbumin | – | – | – | – | – | – | – | – | – | – | – | – | – | – | not | not
7 | CSCC[C@H](NC(=O)[C@@H](NC(=O)[C@H](Cc1ccccc1)NC(=O)[C@@H]1CCCN1C(=O)[C@H](C)NC(=O)[C@H](CCSC)NC(=O)[C@@H](NC(=O)[C@H](CO)NC(=O)[C@H](CCCNC(=N)N)NC(=O)[C@H](Cc1ccccc1)NC(=O)[C@@H](NC(=O)[C@H](CC(N)=O)NC(=O)[C@H](CO)NC(=O)[C@H](Cc1ccccc1)NC(=O)[C@@H](N)Cc1c[nH]cn1)C(C)C)C(C)C)[C@@H](C)O)C(=O)O [Peptide 3563.0010] | – | 8 | – | 94 | 799 | – | 5570 | – | – | – | – | – | – | – | – | –
8 | CC[C@H](C)[C@H](NC(=O)[C@H](CCCCN)NC(=O)CN)C(=O)N[C@@H](CC(=O)O)C(=O)N[C@@H](Cc1ccccc1)C(=O)N[C@@H](CC(C)C)C(=O)N[C@@H](CC(N)=O)C(=O)N[C@@H](CC(N)=O)C(=O)N[C@@H](Cc1ccc(O)cc1)C(=O)N[C@@H](C)C(=O)N[C@@H](CC(C)C)C(=O)N[C@@H](Cc1ccccc1)C(=O)N[C@@H](CC(C)C)C(=O)N[C@@H](CO)C(=O)N1CCC[C@H]1C(=O)O [Peptide 3563.0019] | 456 | – | – | 424 | 6510 | – | – | 495 | – | – | – | – | – | 57 | – | –
9 | CC[C@H](C)[C@H](NC(=O)[C@H](CC(C)C)NC(=O)[C@@H](N)Cc1ccccc1)C(=O)N[C@@H](Cc1ccc(O)cc1)C(=O)N[C@H](C(=O)N[C@H](C(=O)N[C@@H](CCC(=O)O)C(=O)N[C@@H](CC(C)C)C(=O)N[C@@H](CC(C)C)C(=O)N[C@@H](CCCCN)C(=O)N[C@@H](CCCCN)C(=O)N[C@@H](CC(C)C)C(=O)N[C@@H](CCC(N)=O)C(=O)N[C@@H](CO)C(=O)N[C@H](C(=O)O)[C@@H](C)O)[C@@H](C)O)[C@@H](C)CC [Peptide 3563.0030] | 96 | – | 8.6 | 32 | – | 215 | 4760 | 5900 | – | – | – | – | – | – | – | –
10 | CC[C@H](C)[C@H](NC(=O)[C@H](CC(C)C)NC(=O)[C@H](CC(N)=O)NC(=O)[C@@H](NC(=O)[C@@H](NC(=O)[C@H](Cc1ccccc1)NC(=O)[C@H](Cc1c[nH]cn1)NC(=O)[C@H](CCCCN)NC(=O)[C@@H](NC(=O)[C@@H](N)Cc1c[nH]cn1)C(C)C)C(C)C)[C@@H](C)CC)C(=O)NCC(=O)N[C@@H](CC(=O)O)C(=O)N[C@@H](Cc1ccccc1)C(=O)N[C@@H](CCC(=O)O)C(=O)N[C@H](C(=O)O)C(C)C [Peptide 3563.0014] | 58 | – | 148 | 818 | 12200 | 7 | 3.7 | 13600 | – | – | – | – | – | – | – | –
11 | CC[C@H](C)[C@H](NC(=O)[C@H](CC(C)C)NC(=O)[C@H](CCCCN)NC(=O)[C@H](CO)NC(=O)CNC(=O)[C@@H](N)C(C)C)C(=O)N[C@H](C(=O)N[C@@H](C)C(=O)N[C@@H](CCSC)C(=O)N[C@@H](CO)C(=O)N[C@@H](CO)C(=O)N[C@@H](Cc1c[nH]c2ccccc12)C(=O)N[C@@H](CC(C)C)C(=O)N[C@@H](CCC(N)=O)C(=O)N[C@@H](CCCCN)C(=O)O)C(C)C [Peptide 3563.0008] | 128 | – | – | – | 1860 | 89 | – | 617 | – | – | – | 110 | – | – | – | –

From US12448433B2, “Human ApoB100 epitopes, methods and uses for modulating inflammatory responses, and treating adverse cardiovascular events, disease and atherosclerosis” (LA JOLLA INSTITUTE FOR ALLERGY AND IMMUNOLOGY, priority 2015, dated 2025)
